According to patent US20100317699A1, “USE OF HEDGEHOG AGONISTS IN THE TREATMENT OF MUSCULOSKELETAL-RELATED DISORDERS” (NOVARTIS AG, priority 2008, published 2010):
Where “and” joins values, the source holds several entries; their conditions need not be identical. Equal values may be shown once. Entries after “also recorded” stand apart in the source; their conditions may differ.

Legend:
Cyclin D1 [1] = assay: Cyclin D1 mRNA expression in myoblasts; assay type: cell-based
Protocol: (§1) RNA and qRT-PCR. For analysis of gene expression, cells were treated with vehicle (DMSO) or 10 nM Shh-Ag for 24 hours. Total RNA was isolated with RNEasy Miniprep Kit (Qiagen), DNAse treated (RQ1, Promega) and reverse transcribed (iScript, Biorad) according to manufacturers instructions. Quantitative PCR was performed using Taqman Gene Expression Assays (Applied Biosystems) in an ABI7500 Fast system as per manufacturer's instructions. Gene expression changes were calculated using the comparative ΔΔCT method.

wild-type (WT) mice = assay: Intramuscular injection into wild-type mouse skeletal muscle, BrdU/Pax7 staining; assay type: in vivo; settings: 500 μM IM once per day for two days
Protocol: (§2) FIG. 3 is a graphic depiction of the design of in vivo experiments, further detailed herein. 6 to 8-week old wildtype (WT), DMD^MDX, or WT cardiotoxin-injured mice (Ctx-inj) received two consecutive bilateral IM injections of either vehicle (10% DMSO/PBS), or Shh-Ag (500 μM) into tibialis anterior (TA) or gastrocnemius (GA) muscles, followed by an IP injection of BrdU. Mice were sacrificed and muscles were then collected 3 or 7 days following ctx-injury for immunostaining (TA) or FACS analysis (GA); n=4 for all groups.
(§3) Mice. All mouse protocols were approved by the Animal Care and Use Committee of Novartis Institutes for BioMedical Research. Wild-type (C57BL/6J) and C57BL/10 DMD^MDX mice were obtained from Jackson Labs. All analyses were performed on male mice approximately 6-8 weeks of age.
(§4) Shh-Ag treatment. 20 μl (TA) or 50 μl (GA) of vehicle (10% DMSO/PBS) or 500 μM Shh-Ag was injected into the respective tibialis anterior or gastrocnemius muscles once per day for two consecutive days.
(§5) BrdU treatment. […] Three random images from four replicate experiments were analyzed for total cell (Dapi) and BrdU+ cell number. […]
(§6) Immunostaining. […] Images were obtained using an ScanScope XT scanner and analyzed using Aperio ImageScope 6.25 software (Aperio Technologies). […]

DMD^MDX mice = assay: Intramuscular injection into DMD MDX mouse skeletal muscle, BrdU/Pax7 staining; assay type: in vivo; settings: 500 μM IM once per day for two days
Protocol: as §2, §3, §4, §5, §6

Gli1 [2] = assay: Gli1 mRNA levels in myotubes; assay type: cell-based; settings: 10 μM, 24 hours
Cyclin D1 [3] = assay: Cyclin D1 protein levels, Western blot densitometry; assay type: cell-based; settings: rSHH 1 μg/mL; densitometric scores relative to vehicle=100
Protocol: (§7) Protein expression. For details of protein extraction and analysis, please see Supplementary Methods online. Antibodies used for Western are rabbit polyclonal antibodies against Gli1, total Akt, phosphorylated Akt-Ser473 (Cell Signaling) and Cyclin D1 (Abeam).
(§8) Protein Expression. Cells were collected in lysis buffer (20 mM Tris, pH 7.5, 150 mM NaCl, 1 mM EDTA, 1 mM EGTA, 1% Nonidet NP-40, 1 mM β-glycerol phosphate, 1 mM Na3VO4, 1 μg/ml leupeptin, and 1 mM PMSF) and measured for protein concentration with a BCA protein assay kit (Pierce). Electrophoretic separation was performed utilizing 20-60 μg of protein on 4-12% mini-gels (Invitrogen). Proteins were transferred to a PVDF membrane, blocked in 5% blotto [5% powdered milk in TBST (Tris-buffered saline, 1% Tween 20)] for 1 hr followed by an overnight incubation at 4° C. with primary antibody. After overnight incubation, membranes were washed for 30 min in TBST and then probed with anti-rabbit antibody for 45 min at room temperature. After another 30 min of washing in TBST, the blots were developed with ECL. Once the appropriate image was captured, membranes were stained with Coomassie blue to verify equal loading in all lanes. Densitometric measurements were carried out using AlphaEase software (Alpha Innotech).

Cyclin D1 [4] = assay: Cyclin D1 mRNA expression in isolated SCs; assay type: cell-based
Protocol: as §1
(§9) Myoblast and Satellite cell isolation. Primary mouse myoblasts were isolated from mouse hind-limb muscles as described herein. Muscle satellite cells were isolated from hind-limb muscles of 4-6 week old C57BL/6J mice. Muscles were dissected and finely chopped with razor blades in DMEM. Chopped muscles were placed in a 50 mL Falcon tube with 30 mL of dissociation solution (0.1% Collagenase D, 0.25% Trypsin in DMEM) and agitated at 37° for 20 minutes. Following dissociation, 500 μl of fetal calf serum was added to block Trypsin activity and samples were passed through a 37 μM filter. Solutions were diluted two-fold in DMEM, passed through a […] filter, centrifuged at 1000 RPM for 15 minutes, and the subsequent pellet was re-suspended in 1% FCS/PBS. Syndecan 4 positive satellite cells were then isolated by fluorescent activated cell sorting (FACS) utilizing an ARIA-UV cell sorter (BD).

isolated satellite cells = assay: Isolated satellite cell proliferation, total cell number and BrdU incorporation; assay type: cell-based, mouse; settings: 48 hr treatment, versus vehicle
Protocol: (§10) Cells. TM3 and C2C12 cells were obtained from ATCC, propagated according to manufacturer's instructions, and maintained at subconfluence. Both primary myoblasts and isolated satellite cells were grown in Ham's F10 media supplemented with 20% Fetal calf serum and 1% Penicillin/Streptomycin without βFGF. All cells were plated on pre-coated collagen dishes (MatTek) or on plastic culture plates treated with rat tail collagen type I (BD).
as §9, with “Syndecan 4 positive satellite cells were then isolated by fluorescent activated cell sorting (FACS) utilizing an ARIA-UV cell sorter (BD).” left out
as §5

[5] = test system: WT cardiotoxin-injured mice; assay: Cardiotoxin-induced muscle injury and regeneration in WT mice, staining and FACS analysis; assay type: in vivo, mouse
Protocol: as §2, §3
Cardiotoxin-induced regeneration. Muscle regeneration was induced by injecting 40 μl (TA) or 100 μl (GA) of cardiotoxin (10 μM Naja atra; Sigma) into the respective tibialis anterior or gastrocnemius muscles of WT C57BL/6J mice.
as §4
BrdU treatment. For treatment of isolated SCs, a 1:100 dilution of 5-bromodeoxyuridine (BrdU) labeling reagent (10 mg/mL; Invitrogen) was added to the culture media 24 hours following vehicle or Shh-Ag treatment. Cells were then incubated an additional 5 hours, fixed, probed for BrdU, mounted with Dapi containing medium (Vector Labs), and then imaged as described in Materials in Methods. Three random images from four replicate experiments were analyzed for total cell (Dapi) and BrdU+ cell number. For in vivo delivery, 100 μl of BrdU was intraperitoneally (IP) injected following the second vehicle or Shh-Ag intramuscular injection.
FACS analysis. The following antibodies were used in this study: APC-conjugated anti-CD45 (BD), PE-conjugated anti-Syndecan 4 (BD), and FITC-conjugated anti-BrdU (BioVision). Muscles from treated mice were dissected and dissociated as described. To sort satellite cells for further experimentation, […] anti-syndecan 4 was utilized to positively select cells following ARIA (BD) mediated cell sorting. […]
as §6
To quantify the induction of SC proliferation, ctx-injured and Shh-Ag treated muscle samples (GA) were collected and processed for FACS analysis. A single-cell muscle suspension was gated based on CD45− and Syndecan4+ expression, commonly used identifiers of muscle SCs, and the resultant population was then analyzed for intracellular BrdU localization (see, e.g., FIG. 4). […]

Gli1 [6] = assay: Gli1 protein levels, Western blot densitometry; assay type: cell-based; settings: rSHH 1 μg/mL; densitometric scores relative to vehicle=100
Protocol: as §7, §8

primary myoblasts = assay: Primary myoblast proliferation, PI staining and FACS analysis; assay type: cell-based, mouse
Protocol: as §10
Myoblast isolation. Two to three week-old male C57/BL/6J pups were used for the experiments. The mice were euthanized using CO2. Then the skin and fascia from the ankle joint up toward the hip were peeled to expose underlying muscles. The muscles (hamstring, quadriceps, tibialis anterior, extensor digitorum longus, gastrocnemius and soleus) from both legs were carefully removed, trying to any tendons and non-muscle tissues. The dissected muscles were placed in a sterile […] containing PBS and washed to remove hair and other debris. The muscles were then transferred to a sterile 35 mm^2 dish and 1.5 ml of a collagenase/dispase solution was added to digest the tissues. The tissues were mulched into a reasonably smooth pulp using sterile disposable followed by incubating at 37° C. for 12 min. They were then triturated using 5 ml plastic pipettes to homogenize the mixture. The incubation and triturating step was repeated once more. […]

Row | Molecule | increase in Cyclin D1 mRNA expression (Cyclin D1 [1]) | Pax7/BrdU fluorescent co-staining of muscle sections (wild-type (WT) mice) | BrdU staining of muscle sections (wild-type (WT) mice; vehicle sections negative) | mononuclear cell infiltration (BrdU+ staining) (DMD^MDX mice) | number of Pax7−/BrdU+ cells (DMD^MDX mice) | Gli1 mRNA levels, fold increase (Gli1 [2]) | Cyclin D1 protein levels (Cyclin D1 [3]) | increase in Cyclin D1 mRNA expression (Cyclin D1 [4]) | increase in the percentage of SCs incorporating BrdU (isolated satellite cells) | BrdU+, centrally-aligned nuclei in longitudinal muscle sections ([5]; 7 days following ctx-injury) | percent of proliferating (BrdU+) SCs ([5]; ctx-injured GA muscle, FACS, vehicle 4.82±0.33) | percentage of Pax7 expressing SCs that are Pax7+/BrdU+ double positive ([5]; ctx-injured WT muscle, compared to vehicle control) | number of BrdU+ cells at an early stage of regeneration ([5]; single cardiotoxin injury, WT mice, 500 μM IM) | Gli1 protein levels (Gli1 [6]) | myoblast proliferation on co-treatment of Shh-Ag with IGF-1 (primary myoblasts)
1 | CNC1CCC(N(Cc2cccc(-c3ccncc3)c2)C(=O)c2sc3c(F)ccc(F)c3c2Cl)CC1 (stereo not drawn) [Shh-Ag] | more than 50% | Pax7+/BrdU+ double positive cells were easily seen | displayed BrdU+ precursor cells | seemed to promote even greater mononuclear cell infiltration | greatly increased | over 20 fold | elevated protein expression; also recorded: increase | more than 50% | two fold increase | increase in BrdU+, centrally-aligned nuclei | 10.67±1.87% and 10.6% | larger percentage | significantly increase | induction; also recorded: increase | –
2 | IGF-1: Insulin-like growth factor I, a known skeletal muscle mitogen signaling through PI3K/Akt | – | – | – | – | – | – | – | – | – | – | – | – | – | – | did not significantly increase
